Converted amounts (≈) assume the structure as drawn.
What was measured:
[1] = test system: Hepatitis B virus; assay: Antiviral activity against HBV infected human HepG2-hNTCP cells assessed as reduction of HBV DNA level preincubated for 3 hrs followed by viral infection for 16 hrs further compound washout and measured 6 days post infection by qPCR analysis; format: functional, organism-based
[2] = target: T1, Hepatic sodium/bile acid cotransporter (Homo sapiens, UniProt Q14973); assay: Inhibition of preS1-peptide binding to human HA-tagged NTCP in U2OS expresseing NTCP in incubated for 24 hrs using Myrcludex B as substrate by competitive binding assay; format: cell-based
T1 sequence (Q14973 whole entry): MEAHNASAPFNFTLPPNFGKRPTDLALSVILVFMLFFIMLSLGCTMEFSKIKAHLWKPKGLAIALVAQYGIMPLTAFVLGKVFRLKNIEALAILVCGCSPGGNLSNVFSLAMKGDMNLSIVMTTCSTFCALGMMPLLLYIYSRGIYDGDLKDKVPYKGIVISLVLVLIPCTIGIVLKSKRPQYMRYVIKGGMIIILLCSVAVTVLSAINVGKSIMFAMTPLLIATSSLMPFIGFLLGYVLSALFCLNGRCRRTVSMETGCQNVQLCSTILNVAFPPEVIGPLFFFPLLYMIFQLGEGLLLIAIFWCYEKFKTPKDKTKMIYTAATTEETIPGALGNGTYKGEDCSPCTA

[3] = target: T1, Hepatic sodium/bile acid cotransporter; assay: Inhibition of human NTCP mediated TCA uptake in U2OS expresseing HA-tagged NTCP cells preincubated for 10 mins followed by substrate addition and measured after 2 mins using [3H]-taurocholate as substrate by liquid scintillation counter analysis; format: cell-based
[4] = test system: Hepatitis B virus; assay: Antiviral activity against HBV infected HepG2 cells assessed as reduction in HBeAg level; format: functional, organism-based; details: HepG2 2.2.15
[5] = test system: Hepatitis B virus; assay: Antiviral activity against HBV infected HepG2 cells assessed as reduction in HBsAg level; format: functional, organism-based; details: HepG2 2.2.15
[6] = test system: HepG2; assay: Antiproliferative activity against human HEpG2 cells; format: functional, cell-based
[7] = test system: Hepatitis B virus; assay: Antiviral activity against HBV infected HepG2 2.2.15 cells assessed as reduction in HBeAg level and measured after 9 days by ELISA; format: functional, organism-based; details: HepG2 2.2.15, 216 h
[8] = test system: Hepatitis B virus; assay: Antiviral activity against HBV infected HepG2 2.2.15 cells assessed as reduction in HBsAg level and measured after 9 days by ELISA; format: functional, organism-based; details: HepG2 2.2.15, 216 h
[9] = test system: Hepatitis B virus; assay: Antiviral activity against HBV infected in human HepG2-hNTCP cells assessed as reduction in intracellular HBV RNA incubated for 16 hrs followed by compound washout and measured after 6 days post infection by ELISA; format: functional, organism-based
[10] = test system: Hepatitis B virus; assay: Antiviral activity against HBV infected in human HepG2-hNTCP cells assessed as reduction in HBsAg level preincubated for 2 hrs followed by viral infection for 16 hrs further compound washout and measured after 12 days post infection by ELISA; format: functional, organism-based
[11] = test system: Hepatitis B virus; assay: Antiviral activity against HBV infected HepG2 2.2.15 cells assessed as reduction in HBsAg level at 50 microg/ml for 48 hrs by ELISA; format: functional, organism-based; set-up: Activity: scale not given: the % may be the effect or the level left; details: for Activity: dose 50 µg/ml, time 48 hrs
[12] = test system: Hepatitis B virus; assay: Antiviral activity against HBV infected HepG2 2.2.15 cells assessed as reduction in HBeAg level at 50 microg/ml for 48 hrs by ELISA; format: functional; set-up: scale not given: the % may be the effect or the level left; details: dose 50 µg/ml
[13] = target: T1, Hepatic sodium/bile acid cotransporter; assay: Inhibition of HBV subgenotype D3 [3H]-myr-preS1 (2 to 48 residues) peptide binding to human NTCP in HEK293 cells preincubated for 5 mins followed by substrate addition and measured after 10 mins using by microplate scintillation counter analysis; format: cell-based
[14] = target: T1, Hepatic sodium/bile acid cotransporter; assay: Inhibition of human NTCP mediated TCA uptake in HepG2-hNTCP cells incubated for 15 mins using [3H] taurocholic acid as substrate by liquid scintillation counter analysis; format: cell-based
[15] = target: T1, Hepatic sodium/bile acid cotransporter; assay: Inhibition of TAMRA-labeled preS1-peptide binding to human NTCP in HepG2-hNTCP cells incubated for 30 mins by […]; format: cell-based
[16] = test system: Hepatitis delta virus; assay: Antiviral activity against hepatitis D virus infected in human Huh-7 cells overexpressing NTCP assessed as reduction in intracellular HDV RNA for 20 hrs followed by viral infection further compound washout and measured after 6 days post infection by RT-qPCR analysis; format: functional, organism-based
[17] = test system: Hepatitis delta virus; assay: Antiviral activity against hepatitis D virus infected in human HepG2-hNTCP cells assessed as reduction in viral replication preincubated for 5 mins followed by viral infection measured after 6 hrs post infection by RT-qPCR analysis; format: functional, organism-based
[18] = test system: Hepatitis B virus; assay: Antiviral activity against HBV infected human DMSO differentiated HuS-E/2 cells assessed as reduction of HBV core protein level incubated for 20 hrs by Western blot analysis; format: functional, organism-based; details: HuS-E/2, 20 h
[19] = target: T1, Hepatic sodium/bile acid cotransporter; assay: Binding affinity to NTCP (unknown origin)
[20] = test system: Hepatitis B virus; assay: Antiviral activity against HBV infected human DMSO differentiated HuS-E/2 cells overexpressing NTCP assessed as assessed as inhibition of viral entry by measuring HBV mRNA level at 20 uM by qPCR analysis relative to control; format: functional
[21] = test system: Hepatitis B virus; assay: Antiviral activity against HBV infected human DMSO differentiated HuS-E/2 cells overexpressing NTCP assessed as assessed as inhibition of viral entry by measuring HBV mRNA level by qPCR analysis; format: functional, organism-based
[22] = test system: Hepatitis B virus; assay: (§1) Antiviral activity against HBV infected in human DMSO differentiated imHC cells assessed as reduction in viral load at 30 uM preincubated for 2 hrs followed by viral infection for 18 hrs followed by compound washout and further treated with fresh compound for 24 hrs and measured on day 7 post infection by real-time qPCR analysis; format: functional; set-up: scale not given: the % may be the effect or the level left; details: time 44 hrs
[23] = target: T1, Hepatic sodium/bile acid cotransporter; assay: Binding affinity to human NTCP assessed as dissociation constant by isothermal titration calorimetry
[24] = test system: Hepatitis B virus; assay: as §1, with “intracellular HBV DNA” for “viral load”; format: functional; set-up: scale not given: the % may be the effect or the level left; details: time 44 hrs

Cc1cc(OCCCS(C)(=O)=O)cc(C)c1-c1cccc(COc2ccc3c(c2)OC[C@H]3CC(=O)O)c1
IC50 [1]: 30 µM

COc1cc(-c2ccc(/N=N/c3ccc4c(S(=O)(=O)O)cc(S(=O)(=O)O)c(N)c4c3O)c(OC)c2)ccc1/N=N/c1ccc2c(S(=O)(=O)O)cc(S(=O)(=O)O)c(N)c2c1O [CHICAGO SKY BLUE]
IC50 [2]: > 1 µM
IC50 [3]: 7.1 µM

CC(C)(C)OC(=O)N1CCN(CC(=O)NCc2cccc(CNS(=O)(=O)c3ccc(C(F)(F)F)cc3)c2)CC1
IC50 [4]: 7.64 ng/mL (≈ 0.0134 µM)
IC50 [5]: 3.24 ng/mL (≈ 0.00568 µM)
IC50 [6]: 7.36 µM

CN1CCCC(n2nc(Cc3ccc(Cl)cc3)c3ccccc3c2=O)CC1 (stereo not given) [AZELASTINE]
IC50 [7]: 3.7 µM
IC50 [8]: 7.5 µM

O=C1N=C(O)S/C1=C\c1ccc(OCc2ccc(-c3ccccc3)cc2)cc1
IC50 [9]: 3.8 µM

CC1(COc2ccc(CC3SC(=O)NC3=O)cc2)CCCCC1 (stereo not given) [CIGLITAZONE]
IC50 [10]: 5 µM

Cc1c(C)c2c(c(C)c1O)CCC(C)(COc1ccc(CC3SC(=O)NC3=O)cc1)O2 (stereo not given) [TROGLITAZONE]
IC50 [10]: 10 µM

O=C(O)c1cc(/N=N/c2ccc(S(=O)(=O)Nc3ccccn3)cc2)ccc1O [SULFASALAZINE]
IC50 [2]: > 1 µM

C[C@H]1O[C@H](Oc2c(-c3cc(O)c(O)c(O)c3)oc3cc(O)cc(O)c3c2=O)[C@@H](O)[C@@H](O)[C@@H]1O
Activity [11]: 44%
Activity [12]: 35%

C=C(C)[C@@H]1CC[C@]2(COC(C)=O)CC[C@]3(C)[C@H](CC[C@@H]4[C@@]5(C)CC[C@H](OC(C)=O)C(C)(C)[C@@H]5CC[C@]43C)[C@@H]12 [BETULIN DIACETATE]
IC50 [13]: 199 µM

COc1cc(C(=O)NS(=O)(=O)c2ccccc2C)ccc1Cc1cn(C)c2ccc(NC(=O)OC3CCCC3)cc12 [ZAFIRLUKAST]
IC50 [2]: > 1 µM

C=C(C)[C@@H]1CC[C@]2(CO)CC[C@]3(C)[C@H](CC[C@@H]4[C@@]5(C)CC[C@H](OC(=O)/C=C/c6ccc(O)c(O)c6)C(C)(C)[C@@H]5CC[C@]43C)[C@@H]12
IC50 [13]: 6 µM

Cc1c(Cc2ccccc2)c(=O)oc2cc(OCC(=O)NC(CSCc3ccccc3)C(=O)O)ccc12 (stereo not given)
IC50 [14]: 13.3 µM
IC50 [15]: 150 µM

CCCCCCc1cc2ccc(OCC(=O)NC(CCSC)C(=O)O)cc2oc1=O (stereo not given)
IC50 [14]: 17.8 µM
IC50 [15]: 238 µM

CC(C)c1nc(CN(C)C(=O)N[C@H](C(=O)N[C@@H](Cc2ccccc2)C[C@H](O)[C@H](Cc2ccccc2)NC(=O)OCc2cncs2)C(C)C)cs1 [RITONAVIR]
EC50 [16]: 9.1 µM

O=c1c(O)c(-c2ccc(O)c(O)c2)oc2cc(O)cc(O)c12 [QUERCETIN]
Activity [11]: 60%
Activity [12]: 62%

CCCCCCc1c(C)c2ccc(OCC(=O)NC(Cc3ccccc3)C(=O)O)cc2oc1=O (stereo not given)
IC50 [14]: 12.5 µM
IC50 [15]: 145 µM

COc1ccc([C@H](O)[C@H](c2ccccn2)[C@@H](Nc2ccccn2)c2ccccc2)cc1
IC50 [17]: 70 µM
IC50 [13]: 16.5 µM

O=C(O[C@@H]1Cc2c(O)cc(O)cc2O[C@@H]1c1cc(O)c(O)c(O)c1)c1cc(O)c(O)c(O)c1 [EPIGALOCATECHIN GALLATE]
IC50 [18]: 10 µM

O=C1NC(=O)C(Cc2ccc(OCc3ccc(-c4ccccc4)cc3)cc2)S1 (stereo not given)
IC50 [9]: 5.2 µM

O=C1[C@H](CC[C@H](O)c2ccc(F)cc2)[C@@H](c2ccc(O)cc2)N1c1ccc(F)cc1 [EZETIMIBE]
Ki [19]: 25 µM
EC50 [16]: 10.4 µM

C=C(CO)[C@@H]1CC[C@]2(COC(C)=O)CC[C@]3(C)[C@H](CC[C@@H]4[C@@]5(C)CC[C@H](OC(C)=O)C(C)(C)[C@@H]5CC[C@]43C)[C@@H]12
IC50 [13]: 8 µM

CC(C)[C@@H](C)/C=C/[C@@H](C)[C@H]1CC[C@@H]2[C@]1(C)CC[C@H]1[C@]23C=C[C@]2(C[C@@H](O)CC[C@]12C)OO3 [ERGOSTEROL PEROXIDE]
inhibition at 20 µM [20]: 75%
EC50 [21]: 9.64 µM

C=C(C)[C@@H]1CC[C@]2(/C=N/O)CC[C@]3(C)[C@H](CC[C@@H]4[C@@]5(C)CC[C@H](O)C(C)(C)[C@@H]5CC[C@]43C)[C@@H]12
IC50 [13]: 11 µM

Cc1ccc(C(=O)NCC(=O)N/N=C/c2ccccc2OCc2ccccc2Cl)cc1
IC50 [4]: 15 ng/mL (≈ 0.0344 µM)
IC50 [5]: 3.95 ng/mL (≈ 0.00906 µM)

O=C1NC(=O)/C(=C/c2ccc(-c3ccc(-c4cccc5ccccc45)cc3)cc2)S1
IC50 [9]: 1.7 µM

COc1cc(/C=C/C(=O)CC(=O)/C=C/c2ccc(O)c(OC)c2)ccc1O [CURCUMIN]
Activity [22]: 55%
Kd [23]: 64.3 µM
Activity [24]: 67%

CN(CCOc1ccc(CC2SC(=O)NC2=O)cc1)c1ccccn1 (stereo not given) [ROSIGLITAZONE]
IC50 ([11]; Hepatitis B virus, HepG2 2.2.15, 48 h): 5.1 µM

O[C@H](c1ccc([C@@H](O)[C@@H](c2ccccn2)[C@H](Nc2ccccn2)c2ccccc2)cc1)[C@@H](c1ccccn1)[C@H](Nc1ccccn1)c1ccccc1
IC50 [17]: 70 µM
IC50 [13]: 6.5 µM

CCCCC1=NC2(CCCC2)C(=O)N1Cc1ccc(-c2ccccc2-c2nnn[nH]2)cc1 [IRBESARTAN]
EC50 [16]: 9.4 µM

Cc1c(OCC(=O)NC(CSCc2ccccc2)C(=O)O)ccc2c3c(c(=O)oc12)CCCC3 (stereo not given)
IC50 [14]: 16.2 µM
IC50 [15]: 123 µM

O=Cc1cccc([C@@H]([C@H](Nc2ccccn2)c2ccccc2)[C@@H](O)c2ccccc2)n1
IC50 [17]: 15 µM
IC50 [13]: 16 µM

Source: ChEMBL document CHEMBL5150016, “Inhibiting Sodium Taurocholate Cotransporting Polypeptide in HBV-Related Diseases: From Biological Function to Therapeutic Potential” (J Med Chem, 2022)
